Results as given in PubChem BioAssay (NCI).
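These data come from cells grown in 96-well plates and exposed to compound for 48 hours at five concentrations. TGI is the concentration that stops growth completely.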

Assays:
Experiment in all cases: NCI tumour cell line growth inhibition, 48 h
[1] = system: A549 NSCLC
[2] = system: CCRF-CEM leukemia
[3] = system: DU-145 prostate
[4] = system: HL-60(TB) leukemia
[5] = system: HOP-92 NSCLC
[6] = system: IGROV1 ovarian
[7] = system: MALME-3M melanoma
[8] = system: MDA-N
[9] = system: MOLT-4 leukemia
[10] = system: OVCAR-4 ovarian
[11] = system: SF-539 CNS
[12] = system: SR leukemia

| Structure (SMILES) | TGI [1] [µM] | TGI [2] [µM] | TGI [3] [µM] | TGI [4] [µM] | TGI [5] [µM] | TGI [6] [µM] | TGI [7] [µM] | TGI [8] [µM] | TGI [9] [µM] | TGI [10] [µM] | TGI [11] [µM] | TGI [12] [µM] |
| --- | --- | --- | --- | --- | --- | --- | --- | --- | --- | --- | --- | --- |
| CCOC(=O)C1C(c2ccc(OC)cc2)c2c([nH]n(-c3ccccc3)c2=O)CC1(C)O (configuration not stated) | > 100 | 35.6 | > 100 | 11.1 | > 100 | > 100 | > 100 | > 100 | 6.35 | > 100 | > 100 | > 100 |
| COc1ccc(/C=N/NC(=S)Nc2cc(C)ccc2OC)cc1 | > 100 | > 100 | > 100 | 66.7 | 72 | > 100 | 65.2 | 70.7 | 29.2 | > 100 | 49.3 | 41.9 |
| CN(C)C(=O)Oc1ccc(C(=S)Nc2ccccc2)cc1 | > 100 | 79.6 | > 100 | 84.9 |  | > 100 | > 100 | > 100 | 64 | > 100 | > 100 | > 100 |
| Cc1cc(C)nc(NS(=O)(=O)c2ccc(Nc3c4ccccc4nc4ccc(C(=O)Nc5ccc(S(=O)(=O)N=C(N)N)cc5)cc34)cc2)n1 | > 100 | > 100 | > 100 | > 100 | > 100 | > 100 | > 100 | > 100 | > 100 | > 100 | > 100 | > 100 |
| O=C1C=C/C(=C/[C@H]2SSC=C[C@]23C=CC(=O)C3)C1 | 63.2 | 9.27 | 47.3 | 15.1 | 61.5 | 48 | 41.5 | 51.3 | 7.16 | > 74.2 | 61.3 | > 100 |
| CCOC(=O)c1cc2c3c(cc(OC)c2[nH]1)N(C(=O)OCC)CC3 | > 100 | > 100 | > 100 | > 100 | > 100 | > 100 | > 100 | > 100 | > 100 | > 100 | > 100 | > 100 |
| CC1CCCN1CCCOC(=O)c1ccc(OC2C=CCCC2)cc1 (configuration not stated) | > 100 | 66.7 | > 100 | 35.6 |  | 58.4 | 34.4 | > 100 | 55.3 | > 100 | 74.9 | 59.9 |
| COc1ccc(N=Nc2c(N)nn3c(SC)c(C#N)c(N)nc23)cc1 | 36.9 | 4.84 | 19.3 | 6.07 | 27.6 | 4.19 | 31.7 | 26.7 | 7.53 | 35 | 34.6 | 4.59 |
| CC(=O)O[C@H]1C(=O)[C@@]2(C)[C@H]([C@H](OC(=O)c3ccco3)[C@]3(O)C[C@H](OC(=O)[C@H](O)[C@@H](NC(=O)c4ccccc4)c4ccccc4)C(C)=C1C3(C)C)[C@]1(OC(C)=O)CO[C@@H]1C[C@@H]2O | > 25 | 0.837 | > 25 | 0.123 | > 25 | > 25 | > 25 | 0.0602 | > 25 | > 25 | 0.371 | > 7.67 |
| Cc1cc(=O)n2nc(CSc3nnc(Sc4cc(O)ccc4O)s3)sc2n1 | > 100 | 48.6 | > 100 | 54.1 | > 100 | > 100 | > 100 | 32.8 | 59.5 | > 100 | > 100 | > 100 |
| CC(C)(CN1CCCCC1)C(=O)CC(SCCS(=O)(=O)O)c1ccc(Cl)cc1 (configuration not stated) | 23.5 | 6.04 | 21.7 | 8.13 | 7.13 | 20.4 | 24.3 | 9.57 | 6.63 |  | 4.66 | 4.82 |
| COc1cc2c(cc1OC)C(=O)/C(=C/c1ccc(N(C)C)cc1)CC2 | > 10 | > 10 | > 10 | > 10 | > 10 | > 10 | > 10 | > 10 | > 10 | > 10 | > 10 | > 10 |
| COc1ccc2c(c1)CC[C@@H]1C2CC[C@]2(C)C(=C=CP(=O)(O)O)CCC12 (some centres not stated) | > 100 |  | > 100 |  | > 100 | > 100 | > 100 | > 100 |  | > 100 | > 100 | > 100 |
| O=C(O)Cn1ccc(=O)c2cc([N+](=O)[O-])ccc21 | > 100 | > 100 | > 100 | > 100 |  | > 100 | > 100 | > 100 | > 100 |  | > 100 | > 100 |
| O=C(NCc1ccccc1Cl)c1c(O)c2ccccc2[nH]c1=O | > 100 | > 100 | > 100 | > 100 | 58.7 | 67.2 | > 100 | > 100 | > 100 | 23.2 | > 100 | > 100 |
| O=C1C2CC[C@@H]3C(=O)C(Cl)(Cl)[C@@H]3CCC2C1(Cl)Cl (some centres not stated) | > 100 | 63.8 | > 100 | 16.7 | > 100 | > 100 | > 100 | > 100 | 74.7 | > 100 | > 90.5 | 70.3 |
| O=C(O)C1(C(O)c2ccccc2)SCCCS1 (configuration not stated) | > 10 | > 10 | > 10 | > 10 | > 10 | > 10 | > 10 | > 10 | > 10 |  | > 10 | > 10 |
| O=C1c2ccccc2C(=O)c2sc(Nc3cc(Cl)ccc3Cl)nc21 | 42.2 | > 100 | 24.6 | 4.89 | 36.2 | 24.3 | 3.33 | 3.41 | > 30.4 | 18.2 | 13.4 | > 100 |
